Where no end group is shown, it is not given here.
How the values were obtained:
B16F10 tumors = assay: B16F10 melanoma tumor model in C57/BL6 mice; format: in vivo, mouse
Experimental: FIG. 5: A8 anti-tumor effect in mice is associated to MDSC and an immune anti-tumor response. (A) Mice were sc injected with B16F10 cells (5×10^4). On day 4, when tumor size was about 0.9 mm^3, animals were treated every two days until the end of the experiment with A0 or A8 (3 mg/kg dissolved in PBS, i.p injection). On day 5, half the animals were treated with cisplatin as a single dose (CDDP, i.p injection, 5 mg/kg). At day 18, the percentage of Gr1^+ CD11b^+ cells in the spleen collected from the different groups of mice was analyzed by flow cytometry (6 animals per group). As a MDCS negative control (Ctl) we used animals with no tumor cells injected. Right panels, a representative immunoblot of pSTAT3 in the MDSC (Gr1^+ CD11b^+ cells) isolated from the spleen of control animals (A0/PBS) or A8 and CDDP-treated animals (A8/CDDP). 14-3-3 is used as a loading control. (B) Analysis of tumor growth in the animals described above. Tumor size was measured every two days (6 animals per group). The white symbols represent the tumors from animals treated with cisplatin. (C) HSP70-exosomes isolated from B16F10 cells treated or not with cisplatin (CDDP, 25 μM) were determined by flow cytometry. Data represent the percentage of MFI+/−SD (n=3); *, p<0.05. (D) Association curves of HSP70-exosomes present in tumor-bearing mice sera treated or not with cisplatin (5 mg/kg). For the biolayer interferometry, biotinylated A8 was immobilized on streptavidin sensor tips. Curves represent mean values of triplicate measurements for each concentration (for each curve, the blood of 5 mice per group was pooled).
Exponentially growing B16F10 were harvested and resuspended in an RPMI medium without FBS. In vivo studies were performed in wild-type C57/BL6 mice (Charles River). B16F10 cells (5·10^4) were injected s.c. into the right flank Tumor volumes were evaluated every 2 days. Mice were treated with a control peptide aptamer A0 (3 mg/kg) or the HSP70 aptamer A8 (3 mg/kg) and half mice were treated with cisplatin (CDDP, […]). The animals were treated according to the guidelines of the Ministère de la Recherche et de la Technologie, France. All experiments were approved by the Comité d'Ethique de l'Université de Bourgogne.
MDSC cell isolation and analysis: Single-cell suspensions were prepared from spleens, and red cells were removed using ammonium chloride lysis buffer. Gr-1+ cells were isolated from spleens of different group of tumor-bearing mice or naive mice by labeling the cells with PE Cy7 Ab to Gr-1, then using magnetic PE Cy7 beads and LS MACS columns (Miltenyi Biotec). For extracellular staining of immune markers, single-cell suspensions were prepared. We incubated 1·10^6 freshly prepared cells with fluorochrome-coupled CD11b antibody (eBioscience). All events were acquired by a BD Bioscience LSR-II device and analyzed with FlowJo (Tree Star).
Animals were killed 18 days after cell injection. The site of tumor cell injection was resected and snap-frozen in liquid nitrogen. An immunohistochemical study of tumor-infiltrating inflammatory cells was performed on acetone-fixed 5 μm cryostat sections.
Next, we tested whether A8 was also able to block the immunosuppressive effect of MDSC in an in vivo cancer model. We performed subcutaneous injection at day 0 of B16F10 cells or media as a control in C57/BL6 mice. When tumor size reached about 0.9 mm^3 ([…]), mice were treated i.p. with a control peptide aptamer (A0) or A8 every two days until the end of the experiment. When indicated, half of the animals received cisplatin (CDDP, […], i.p.) as a single dose. Tumor growth was measured every two days. After 18 days, we analyzed the percentage of MDSC present in mice spleen (6 animals per group) by FACS using the specific markers Gr1^+ and CD11b^+ (FIG. 5A). […]

MSC2 cells = assay: pSTAT3 western blot in MSC2 cells incubated with tumor-derived exosomes; format: cell-based
Experimental: FIG. 4: A8 blocks the activation and proliferation of MSC2 cells. (A) IL-6 concentration was determined by ELISA in the supernatant of MSC2 cells incubated or not for 24 h with exosomes (from B16F10) in the presence or absence of A8. *, p<0.05, (n=3). (B) A representative image of a western blot showing the kinetics of STAT3 phosphorylation in MCS2 cells incubated or not with exosomes isolated from B16F10, CT26 or HCT116 cells together with a peptide control (TDE) or A8 (TDE/A8). 14-3-3 is used as a loading control. In the right panels, the amount of pSTAT3 was quantified by densitometric analysis. *, p<0.05, n=4.
Five millions of MSC2 cells were incubated with or without exosomes isolated from B16F10, CT26, HCT116 or SW480 cells in the presence or absence of A8 during 4 h or 6 h. Cells were isolated, lysed and analysed for pSTAT3 by western blotting.
MSC2 (2·10^6) or MDSC (2·10^6) were incubated alone or with exosomes (from B16F10, CT26, HCT116, SW480) in the absence or presence of A8 or A17 (16 μM) during 6 hours (RPMI 10% FBS, 5% of CO2 at 37° C.). Every 2 hours, […] cells were sampled and centrifugated 5 min at 300 g. Cells were lysed in lysis buffer (50 mM HEPES (pH 7.6), 150 mM NaCl, 5 mM EDTA, and 0.1% NP40 and anti-phosphatases, Roche). Then, pSTAT3 and STAT3 expression were analyzed by western blotting.

SPWPRPTY [Aptamer A8, SPWPRPTY]
intra-tumor infiltration of immune cells (CD3+, CD11c+, CD11b+, F4/80+) (B16F10 tumors; B16F10 model): intra-tumor infiltration of immune cells | anti-cancer properties of cisplatin (B16F10 tumors; B16F10 model, A8 added to cisplatin): strong increase | percentage of MDSC (Gr1+ CD11b+) in spleen (B16F10 tumors; B16F10 tumor-bearing C57/BL6 mice, day 18, A0 or A8 3 mg/kg i.p. every two days, cisplatin single i.p. dose, 6 animals per group): 6+/−0.7% | activity of spleen MDSC measured by phosphorylated STAT3 (B16F10 tumors; after cisplatin treatment, immunoblot of Gr1+ CD11b+ cells): affected their activity | tumor growth / tumor progression (B16F10 tumors; tumor-bearing mice): inhibits tumor progression | STAT3 phosphorylation (activation) in MSC2 induced by tumor-derived exosomes (MSC2 cells; exosomes from CT26, B16F10, HCT116, SW480, 4 h and 6 h, aptamer 16 μM): inhibited the ability of tumor-derived exosomes to activate STAT3 | MDSC activation (STAT3 phosphorylation in MSC2) in the absence of tumor-derived exosomes (MSC2 cells; no exosomes): does not have a direct effect in MDSC activation
